# From a melting point compilation (Tetko et al.; mined from patent text by program, amines drawn as free bases though some values may be those of a salt)
row,SMILES,melting point
1,Fc1cccnc1N1CCC2(CC1)COOC2,45 to 47 °C
2,CCC=CCC=CCC=CCCCCCCCC(=O)OCC(COC(=O)CCCCCCCC=CCC=CCC=CCC)OCn1cnc2c(=O)[nH]c(N)nc21 (stereo not given),242 to 243 °C
3,Cc1cc(C)nc(OC(C(=O)O)C(C)(C)C)n1 (stereo not given),167 to 169 °C
4,O=C(CCS)N[C@@H](Cc1c[nH]cn1)C(=O)O,219 °C
5,CC(C)(C)OC(=O)OC(=O)c1ccc(NNC(N)=S)cc1,161 to 163 °C
6,CCCCCCCCCCNC(=O)c1ccc(C(=O)NCCCCCCCCCC)c(N(CC(=O)OC)CC(=O)OC)c1,76 to 78 °C
7,CCOCc1nc2c(N)nc(C)c(C)c2n1CC(C)C,110 to 112 °C
8,Cc1cnc(-c2cc3c(O)cccc3s2)o1,188 to 189 °C
9,N#CC1(c2ccc(C(F)(F)F)cc2)C2CC3CC(C2)CC1C3 (stereo not given),122 to 124 °C
10,Cc1cc(F)ccc1-c1nc(-c2cn(N)c(=O)[nH]c2=O)nc2c1ccc(=O)n2-c1c(F)cccc1F,> 300 °C
11,Cc1ccc(C)c(C2C(=O)CC(C)C2=O)c1 (stereo not given),138 to 140 °C
12,Cc1sc(-c2ccc(F)cc2)nc1O,173 to 174 °C
13,COc1cc(/C=C/C(=O)/C=C/c2cc(OC)c(O)c(OC)c2)cc(OC)c1O,166 to 168 °C
14,COc1cc2c(cc1OC)CC(=O)N(CCCN(C)C1CCc3cc(Cl)c(Cl)cc3C1)CC2 (stereo not given),130 °C
15,NS(=O)(=O)c1ccc(-n2nc(C(F)(F)F)c(Cl)c2-c2ccc(Cl)cc2)cc1,180 to 182 °C
16,CCN(CC)CCNC(=O)c1cc(I)cc2c(=O)cc[nH]c12,141 to 143 °C
17,O=C(O)CC1(CC(O)=NO)CCCC1,70 to 74 °C
18,N#CC1(c2ccc(F)cc2)C2CC3CC(C2)CC1C3 (stereo not given),81 to 82 °C
19,Cc1ccc(I)c(CC(=O)OC(C)C)c1,48 to 50 °C
20,O=[N+]([O-])c1ccccc1C(Cl)Cl,25.6 to 26.7 °C
21,CNC(=O)c1ccc(N2CCNCC2)c(F)c1,174 to 193 °C

row,SMILES,melting point
1,FCc1cccc(-c2ccc(-c3cn([C@H]4CN5CCC4CC5)nn3)s2)c1,144 °C
2,CC(=O)c1cc(C=O)c(O)cc1O,134 to 136 °C
3,CCCCC1C(C(=O)OCC)C(O)(C(F)(F)F)NC(O)(C(F)(F)F)C1C(=O)OCC (stereo not given),77 to 80 °C
4,COCC1OC(n2cnc3c(N)nc(F)nc32)C(O)C1O (stereo not given),231 to 233 °C
5,COc1ccc(OC)c(-c2cn(N)c(N)n2)c1,159 to 160 °C
6,CNC1C=Cc2cc(O)ccc2CC1 (stereo not given),152 °C
7,COCn1c(C(N)=O)c(OC(C)C)c2cc(OC)ccc21,145 to 147 °C
8,CNc1nnc(-c2ccc3ncn(-c4ccc(SC)cc4)c3c2)o1,224 to 225 °C
9,Cc1ccn2c(C)c(-c3ccc4sc(=O)n(Cc5cccnc5)c4c3)nc2c1,201 to 202 °C
10,CCOC(=O)C(Cc1ccc(OC)cc1SCc1ccc(OC)cc1)(CC(C)C)C(=O)OCC,59 to 60.5 °C
11,C1=c2ccccc2=NCO1,247 to 249 °C
12,O=c1c2ccc(-c3nnn[nH]3)cc2[nH]c2ccc(-c3nnn[nH]3)cc12,> 350 °C
13,NC(=O)c1c(NC(=O)C2CC2)sc2c1CCC(F)(F)C2,207 to 208 °C
14,CN1CCN(c2nc3c(cc2F)c(=O)c(C(=O)O)cn3CCF)CC1,224 to 226 °C
15,CC1Cc2cc3c(cc2C(C=Cc2cccc(Cl)c2)=NN1)OCO3 (stereo not given),114 to 117 °C
16,CC(C)Oc1cc(CC(=O)O)c(F)cc1Cl,57 to 58 °C
17,C=CCN(CC=C)Cc1noc(-c2ncn3c2CN(C)C(=O)c2c(Cl)cccc2-3)n1,125 to 130 °C
18,COC(=O)C(C)(C)OCc1cc2nc(Cl)ccc2n1S(=O)(=O)c1ccc(C(C)C)cc1,120 °C
19,COc1ccnc(CSc2nc3ccc(F)cc3[nH]2)c1C,128 °C
20,c1ccc(N(c2ccccc2)c2ccc(-c3ccc(-c4ccnc(CNc5ccc6ccccc6c5)n4)cc3)cc2)cc1,204 to 205 °C
21,CCCCCCCCCC(=O)Oc1ccc([N+](=O)[O-])cc1OC(=O)CCCCCCCCC,45 to 47 °C

# Continued, values first:
row,melting point,SMILES
1,79.2 to 80.1 °C,COC(=O)COC(=O)Cc1cc(Oc2ccc(C(F)(F)F)cc2Cl)ccc1[N+](=O)[O-]
2,48 to 49 °C,O=C1c2ccccc2CCC1C(=O)C(F)(F)F (stereo not given)
3,132 to 133 °C,COc1ccc(C2=NN(C3CCN(S(=O)(=O)c4ccccc4C)CC3)C(=O)C(C)(C)C2)cc1OC
4,140 to 141 °C,COc1ccc(C2CCc3cc(CC(=O)O)cc(Cl)c3N2)cc1 (stereo not given)
5,150 °C,CN(C)c1cc(CC(C#N)=CNc2ccccc2)cc(N(C)C)c1C(C)(C)C
6,149 to 151 °C,COc1cc(/C=C/C=C/CO)ccc1OCc1nc(-c2ccccc2)oc1C
7,164 to 165 °C,COc1ccc(/C(=C\C=C\C(=O)NCCCCc2cccnc2)c2ccccc2OC)cc1
8,222 to 224 °C,O=C(Nc1ccc(F)cc1F)Nc1c(-c2ccccc2)c2cc(Cl)ccc2[nH]c1=O
9,194 to 196 °C,CCn1cc(C(=O)NCc2ccc(Cl)cc2)c(=O)c2cc(CN3CCOCC3)sc21
10,273 to 275 °C,Cc1nc2ccc(F)cc2c(=O)n1C1CCC(=O)NC1=O (stereo not given)
11,120 to 122 °C,CC(C)[Si](C(C)C)(C(C)C)n1cc(SC(=O)c2ccccc2)c(C(=O)c2ccccc2)c1
12,129 to 132 °C,CN(C)c1ccc(CNC(=O)c2ccccc2O)cc1
13,130 to 135 °C,O=C(NCCCc1ccncc1)N(CCC12CC3CC(CC(C3)C1)C2)Cc1ccccc1
14,157 to 160 °C,O=C1CCCc2c(-c3ccncc3)sc(-c3ccncc3)c21
15,150 to 151 °C,Cc1oc(-c2ccccc2)nc1COc1cccc(CSc2ccc(CC(=O)O)cc2Cl)c1
16,143 to 145 °C,N#Cc1cc([N+](=O)[O-])ccc1N1CCC(OC(=O)c2ccccc2)CC1
17,55 to 57 °C,COC(=O)C[C@H]1C[C@@H](CCc2c(-c3ccc(F)cc3)c(-c3ccc(F)cc3)cn2C(C)C)OC(C)(C)O1
18,213 to 214 °C,CCOC(=O)c1ccc(-c2c(Cl)c(CN3C(=O)CCC3=O)nc3sc4c(c23)CCNC4)cc1
19,137 to 138 °C,Cc1c(C)n(CC2CC2)c2c(OCc3ccc(F)cc3)nncc12
20,215 to 216 °C,O=C(O)c1cc(F)c(F)cc1Nc1ccc(F)cc1F

row,melting point,SMILES
1,138 °C,COC(=O)C(Cc1ccccc1)C(=O)N1CCC(C(=O)O)CC1 (stereo not given)
2,160 to 161 °C,Cc1ccnc2c(Oc3ccccc3N)cccc12
3,128 to 132 °C,CC1=CC(COC(c2ccccc2)(c2ccccc2)c2ccccc2)O[C@H]1c1coc2c(N)ncnc12 (stereo not given in full)
4,198 °C,CN1C(=O)C(c2c[nH]c3ncccc23)=C(c2cn(S(=O)(=O)c3ccccc3)c3ncccc23)C1=O
5,98 to 110 °C,C=C1c2cnccc2CC(=O)c2ccccc21
6,77.3 to 78.9 °C,CCOP(=O)(OCC)c1c(C)c2c(c(C)c1-c1c(OC)ccc3ccccc13)COC2
7,169 to 171 °C,CCOC(=O)c1cc2n(c1)CNc1ccc(Br)cc1-2
8,55 to 57 °C,CCN(CC)C(=O)C(C)n1cc(C)c(-c2ccccc2)n1 (stereo not given)
9,130 to 133 °C,O=C(c1ccccc1)c1cc(Cl)ccc1C#CCN1C(=O)c2ccccc2C1=O
10,80 to 82 °C,COc1ccc(O)c(CSc2ccccc2CO)c1
11,130 to 132 °C,CC(C)(C)N1OC(c2ccccc2)(N2CCOCC2)c2cc(Cl)ccc21 (stereo not given)
12,207 to 209 °C,CC(C)(C)c1cc(CCc2ccccc2NC(=O)N2CCN(C(=O)c3ccccc3)CC2)cc(C(C)(C)C)c1O
13,230 °C,COC(=O)c1ccccc1NC(=O)N1CCc2cc(S(=O)(=O)N3CCN(c4cccc(Cl)c4)CC3)ccc21
14,189 to 193 °C,Nc1cc2c(cn1)CC(c1ccc(Cl)cc1Cl)c1ccccc1-2 (stereo not given)
15,135 to 138 °C,CN(C)C1=C(Cl)C(=O)NC1=Nc1ccccc1
16,183 to 185 °C,N#Cc1cc(NC(=O)c2ccc3ccccc3c2)ccc1N1CCC(O)CC1
17,131 °C,CC(C)CCCNC1c2ccccc2C(=O)N1c1ccc2ccc(Cl)nc2n1 (stereo not given)
18,90 °C,N#CCCn1c(-c2ccccc2)cc2ccccc21
19,189 to 191 °C,NC(=O)N1C(=O)Cc2cc(N)ccc21
20,314 to 315 °C,N#Cc1ccc(C=Cc2ccc(-c3cc4ccccc4o3)cc2)cc1

row,melting point,SMILES
1,129 to 130 °C,O=S(=O)(Nc1ccccc1OCc1ccc2ccccc2n1)c1ccc(Cl)cc1
2,119 to 120 °C,O=C(CSc1nc[nH]n1)c1ccccc1
3,139 to 140 °C,Cn1nc2c(cc1=O)CCSc1ccccc1-2
4,124 to 125 °C,CN(CCOc1ccc(CCCN2C(=O)COC2=O)cc1F)c1ccccn1
5,75 to 76 °C,CCc1nc(-c2cccc(C)c2)c(-c2ccnc(N(C)C(=O)Cc3ccccc3)c2)s1
6,188 °C,CCOC(=O)C(=O)Nc1ccc(C#N)cc1
7,153 °C,CCC1CC(=O)N(Cc2cccc(C(=O)NC3CCCC3)c2)N=C1c1ccc(OC)c(OC2CCCC2)c1 (stereo not given)
8,207 to 210 °C,O=C1c2ccc(Nc3ccc(Cl)cc3)cc2C(=O)N1Cc1cccnc1
9,158 to 160 °C,COc1ccc(-c2nnc(N3CCN(C)CC3)nc2-c2ccc(OC)cc2)cc1
10,118 to 120 °C,CCOC(=O)c1cccc(CN2CCN(c3nc(C)c(C(=O)NCc4ccccc4)s3)C2=O)c1
11,270 to 273 °C,CC1CCc2c3c(cc4ccccc24)C(=O)C(C(=O)O)CN31 (stereo not given)
12,230 to 232 °C,N#Cc1cnc2cc(-c3ccc(C=O)cc3)sc2c1Nc1ccc(Oc2ccccc2)cc1
13,260 to 261 °C,c1ccc2c(c1)nc(Nc1ccc3cc[nH]c3c1)c1nc(C3CCCC3)[nH]c12
14,97 to 98 °C,COC1C(OC(=O)c2ccccc2)C=C(C)C(=O)CC1(C)C (stereo not given)
15,150 °C,Cn1cnc(C(c2ccc(Cl)cc2)c2ccc3c(c2)c(-c2ccccc2)cc(=O)n3C)c1 (stereo not given)
16,133 to 138 °C,CC1(C(=O)NC(CCC(=O)O)Cc2ccccc2)Cc2c([nH]c3ccccc23)CN1C(=O)OC1C2CC3CC(C2)CC1C3 (stereo not given)
17,146 to 148 °C,NC(=O)N(O)[C@H]1CC[C@@H](Sc2ccccc2)C1 (relative stereo)
18,290 °C,O=c1[nH]c2cc(F)ccc2n(C2CCCCC2)c1=O
